Experimental data as given in the NIST ThermoML archive (doi:10.1007/s10765-008-0390-4).
Numbers after ± are expanded uncertainties.

Experiments:
[1] = xn = mol fraction of the nth substance listed; details: 101 kPa, Liquid, x1 = 1
[2] = 101 kPa, Liquid

CCCCO [butan-1-ol] + ClC(Cl)Cl
mass density ([1]; 288.15 K): 813.373 ± 0.24 kg/m3
mass density ([1]; 293.15 K): 809.573 ± 0.24 kg/m3
mass density ([1]; 298.15 K): 805.762 ± 0.25 kg/m3
mass density ([1]; 303.15 K): 801.923 ± 0.25 kg/m3
mass density ([1]; 308.15 K): 798.053 ± 0.25 kg/m3
mass density ([1]; 313.15 K): 794.147 ± 0.25 kg/m3

c1ccccc1 [benzene]
mass density ([2]; 288.15 K): 884.246 ± 0.15 kg/m3
mass density ([2]; 293.15 K): 878.918 ± 0.16 kg/m3
mass density ([2]; 298.15 K): 873.582 ± 0.16 kg/m3
mass density ([2]; 303.15 K): 868.233 ± 0.17 kg/m3
mass density ([2]; 308.15 K): 862.871 ± 0.17 kg/m3
mass density ([2]; 313.15 K): 857.498 ± 0.17 kg/m3

ClC(Cl)Cl [trichloromethane]
mass density ([2]; 288.15 K): 1498.08 ± 0.47 kg/m3
mass density ([2]; 293.15 K): 1488.64 ± 0.46 kg/m3
mass density ([2]; 298.15 K): 1479.15 ± 0.45 kg/m3
mass density ([2]; 303.15 K): 1469.61 ± 0.45 kg/m3
mass density ([2]; 308.15 K): 1460.03 ± 0.44 kg/m3
mass density ([2]; 313.15 K): 1450.41 ± 0.43 kg/m3

CCCCO [butan-1-ol]
mass density ([2]; 288.15 K): 813.373 ± 0.24 kg/m3
mass density ([2]; 293.15 K): 809.573 ± 0.24 kg/m3
mass density ([2]; 298.15 K): 805.762 ± 0.25 kg/m3
mass density ([2]; 303.15 K): 801.923 ± 0.25 kg/m3
mass density ([2]; 308.15 K): 798.053 ± 0.25 kg/m3
mass density ([2]; 313.15 K): 794.147 ± 0.25 kg/m3

CCCCO [butan-1-ol] + c1ccccc1
mass density ([1]; 288.15 K): 813.373 ± 0.24 kg/m3
mass density ([1]; 293.15 K): 809.573 ± 0.24 kg/m3
mass density ([1]; 298.15 K): 805.762 ± 0.25 kg/m3
mass density ([1]; 303.15 K): 801.923 ± 0.25 kg/m3
mass density ([1]; 308.15 K): 798.053 ± 0.25 kg/m3
mass density ([1]; 313.15 K): 794.147 ± 0.25 kg/m3
